Source: ChEMBL document CHEMBL1201862, “PubChem BioAssay data set” (2004)
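Tested at 5 concentrations; 48 h exposure; 96-well plates; endpoints linearly interpolated, else capped at highest concentration. GI50 = concentration required for 50% inhibition of growth.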 Activity calls are given as the source filed them. No stated cut-off is given here; in the data, active = GI50 up to about 1.1 µM and inactive = higher.

What was measured:
Assay in all cases: DTP human tumour cell line panel, 48 h
HCC 2998 = test system: HCC 2998
COLO 205 = test system: COLO 205
UACC-257 = test system: UACC-257
NCI-H460 = test system: NCI-H460
LOX IMVI = test system: LOX IMVI
Hs-578T = test system: Hs-578T
SK-MEL-28 = test system: SK-MEL-28
MCF7 = test system: MCF7
MDA-MB-231 = test system: MDA-MB-231
HT-29 = test system: HT-29
UO-31 = test system: UO-31
CAKI-1 = test system: CAKI-1
KM12 = test system: KM12
SK-OV-3 = test system: SK-OV-3
PC-3 = test system: PC-3
NCI/ADR-RES = test system: NCI/ADR-RES
786-0 = test system: 786-0
OVCAR-3 = test system: OVCAR-3
TK-10 = test system: TK-10
SF-295 = test system: SF-295
Malme-3M = test system: Malme-3M
A498 = test system: A498
SF-539 = test system: SF-539
SK-MEL-2 = test system: SK-MEL-2
SW-620 = test system: SW-620
MDA-MB-435 = test system: MDA-MB-435
SK-MEL-5 = test system: SK-MEL-5
SF-268 = test system: SF-268
HOP-62 = test system: HOP-62
M14 = test system: M14
K562 = test system: K562
NCI-H226 = test system: NCI-H226
A549 = test system: A549
ACHN = test system: ACHN
NCI-H23 = test system: NCI-H23
MOLT-4 = test system: MOLT-4
SNB-75 = test system: SNB-75
RPMI-8226 = test system: RPMI-8226
DU-145 = test system: DU-145
OVCAR-8 = test system: OVCAR-8
IGROV-1 = test system: IGROV-1
T47D = test system: T47D
RXF 393 = test system: RXF 393
SN12C = test system: SN12C
OVCAR-5 = test system: OVCAR-5
HOP-92 = test system: HOP-92
MDA-N = test system: MDA-N
EKVX = test system: EKVX
U-251 = test system: U-251
HCT-15 = test system: HCT-15
HL-60 = test system: HL-60
HCT-116 = test system: HCT-116
SR = test system: SR
NCI-H522 = test system: NCI-H522
CCRF-CEM = test system: CCRF-CEM
SNB-19 = test system: SNB-19
OVCAR-4 = test system: OVCAR-4

COC(=O)c1cc2c(cc1CC1Cc3cc4c(cc3C1)CCC4)CCC2
GI50 (HCC 2998): 22.6 µM (inactive) | GI50 (COLO 205): 40.5 µM (inactive) | GI50 (UACC-257): 25.8 µM (inactive) | GI50 (NCI-H460): 51.1 µM (inactive) | GI50 (LOX IMVI): 24.3 µM (inactive) | GI50 (Hs-578T): 66.8 µM (inactive) | GI50 (SK-MEL-28): 19.5 µM (inactive) | GI50 (MCF7): 25.4 µM (inactive) | GI50 (MDA-MB-231): 77.3 µM (inactive) | GI50 (HT-29): 36.3 µM (inactive) | GI50 (UO-31): 32 µM (inactive) | GI50 (CAKI-1): 90.6 µM (inactive) | GI50 (KM12): 68.7 µM (inactive) | GI50 (SK-OV-3): > 100 µM (inactive) | GI50 (PC-3): 74.3 µM (inactive) | GI50 (NCI/ADR-RES): > 100 µM (inactive) | GI50 (786-0): > 100 µM (inactive) | GI50 (OVCAR-3): 38.6 µM (inactive) | GI50 (TK-10): > 100 µM (inactive) | GI50 (SF-295): 55 µM (inactive) | GI50 (Malme-3M): 86.5 µM (inactive) | GI50 (A498): > 100 µM (inactive) | GI50 (SF-539): 79.4 µM (inactive) | GI50 (SK-MEL-2): 24.3 µM (inactive) | GI50 (SW-620): > 100 µM (inactive) | GI50 (MDA-MB-435): 42.6 µM (inactive) | GI50 (SK-MEL-5): 52.6 µM (inactive) | GI50 (SF-268): 56.9 µM (inactive) | GI50 (HOP-62): > 100 µM (inactive) | GI50 (M14): 63.8 µM (inactive) | GI50 (K562): 25.8 µM (inactive) | GI50 (NCI-H226): > 100 µM (inactive) | GI50 (A549): 60.4 µM (inactive) | GI50 (ACHN): 43.4 µM (inactive) | GI50 (NCI-H23): 44.4 µM (inactive) | GI50 (MOLT-4): 17.2 µM (inactive) | GI50 (SNB-75): 40.1 µM (inactive) | GI50 (RPMI-8226): 21.8 µM (inactive) | GI50 (DU-145): 84.7 µM (inactive) | GI50 (OVCAR-8): > 100 µM (inactive) | GI50 (IGROV-1): 53 µM (inactive) | GI50 (T47D): 37.5 µM (inactive) | GI50 (RXF 393): 34 µM (inactive) | GI50 (SN12C): 79.1 µM (inactive) | GI50 (OVCAR-5): 43.5 µM (inactive) | GI50 (HOP-92): 27 µM (inactive) | GI50 (MDA-N): 36.1 µM (inactive) | GI50 (EKVX): 52.6 µM (inactive) | GI50 (U-251): 34.9 µM (inactive) | GI50 (HCT-15): 59.2 µM | GI50 (HL-60): 15.3 µM (inactive) | GI50 (HCT-116): 35.6 µM (inactive) | GI50 (SR): 19.1 µM (inactive) | GI50 (NCI-H522): 25.7 µM (inactive) | GI50 (CCRF-CEM): 16.9 µM (inactive) | GI50 (SNB-19): 93.3 µM (inactive) | GI50 (OVCAR-4): 84.7 µM (inactive)
